Measurements reported in patent publication US6416783B1, “Aspartic and malic acid inhibition of ss-glucuronidase” (Wisconsin Alumni Research Foundation, priority 1999, dated 2002).
Where “and” joins values, the source holds several entries; their conditions need not be identical. Identical values can stand only once. Entries after “also recorded” stand apart in the source; their conditions may differ. Like-named read-outs stand apart in the source and are kept apart here.

Biological target: T1, β-glucuronidase (Homo sapiens, UniProt P08236)
T1 construct: We used human breast milk collected and pooled from a newborn nursery as the β-glucuronidase source; from tissue
T1 sequence (P08236 23-651): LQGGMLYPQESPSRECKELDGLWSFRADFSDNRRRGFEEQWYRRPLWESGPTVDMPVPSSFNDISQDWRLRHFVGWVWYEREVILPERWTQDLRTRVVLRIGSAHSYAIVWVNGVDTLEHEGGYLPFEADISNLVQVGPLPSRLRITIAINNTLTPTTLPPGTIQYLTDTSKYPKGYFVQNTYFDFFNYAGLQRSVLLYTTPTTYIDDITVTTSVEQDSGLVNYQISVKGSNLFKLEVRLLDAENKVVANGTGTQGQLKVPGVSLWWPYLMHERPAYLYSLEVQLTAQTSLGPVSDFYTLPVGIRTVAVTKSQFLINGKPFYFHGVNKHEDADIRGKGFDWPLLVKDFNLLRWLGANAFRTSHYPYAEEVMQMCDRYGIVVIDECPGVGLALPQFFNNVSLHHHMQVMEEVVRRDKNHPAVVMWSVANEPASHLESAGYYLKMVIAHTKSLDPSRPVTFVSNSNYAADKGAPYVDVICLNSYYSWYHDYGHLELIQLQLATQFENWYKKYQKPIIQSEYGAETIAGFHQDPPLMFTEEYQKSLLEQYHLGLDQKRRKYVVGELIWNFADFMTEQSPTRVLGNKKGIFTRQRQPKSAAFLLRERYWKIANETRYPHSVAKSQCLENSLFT
Assay: Standard Test: β-glucuronidase activity of human breast milk with MUG substrate (fluorescence)
Format: biochemical
Settings: for mean (X̄) activity / X (mean activity): mean of 3; for Activity (pmole/tube/hr) / β-glucuronidase activity (row unlabelled): single replicates; for concentration with significant β-glucuronidase inhibitory activity: tested 10 to 10,000 μM; for X (mean activity) / β-glucuronidase activity (row unlabelled): in pmol/tube/h
Protocol: We first developed a standard assay procedure (the “Standard Test”). We used human breast milk collected and pooled from a newborn nursery as the β-glucuronidase source. The samples were stored at −20° C. The milk was thawed and diluted 10× with 0.2 M sodium acetate/glacial acetic acid (NaAC) buffer pH 4.5 just prior to being used. A 4.0 mM stock solution of 4-methylumbelliferyl β-D-glucuronide (MUG, Sigma M-9130 lot#75H3777) was prepared in 0.2 M NaAC buffer pH 4.5.
Triplicate test and blank tubes contained a reaction mixture consisting of 50 μL diluted breast milk and 50 μL of an inhibitor solution diluted with 0.2 M NaAC buffer pH 4.5. Controls were prepared that contained only 50 μL diluted breast milk and 50 μL 0.2 M NaAC buffer pH 4.5. The assay was started by adding 25 μl of the MUG (4.0 mM, 0.800 mM final concentration) to the test sample to start the reaction. The final volume of the reaction was 125 μL. Both blank and test samples were vortexed and incubated at 37° C. for 1 hour (or for shorter times if indicated).
The reaction was quenched in both the test and blank samples with 3.0 ml of glycine-carbonate (320 mM: 200 mM) buffer pH 10.0. The blank samples had 25 μl of the MUG (4.0 mM, 0.800 mM final) added to them and all tubes were vortexed.
The resulting fluorescence was read using a Perkin Elmer LS5-B fluorescence spectrophotometer (360 nm excitation, 445 nm emission, autorange scale). The amount of 4-methylumbelliferone (4-MU) released by the β-glucuronidase was calculated using a 4-MU quadratic standard curve and the Mathplot software. The velocity was calculated as pmoles of 4-MU formed per hour per ml undiluted breast milk.
We diluted pooled breast milk 20× with 0.2 M NaAC buffer pH 4.5. We diluted 2.2% w/v solution of Amicase (Sigma Cat. #A2427—a mixture of free amino acids with virtually no unhydrolyzed peptides, only minimal inorganic components are present, total nitrogen ˜12.8%, amino nitrogen ˜9.8%) with buffer 5×. We then incubated 50 μl milk with 50 μl buffer and Amicase. We then added 25 μl MUG to start the reaction. We then quenched with Na-carbonate buffer pH 10.0 and read fluorescence at 360 nm ex 445 nm em. Autorange scale. The mixture of amino acids was compared to controls and Nutramigen® as follows:
We then studied the effect of specific amino acid mixtures on β-glucuronidase activity. We diluted pooled breast milk 10× with 0.2 M NaAC buffer pH 4.5 and diluted 50×stock essential amino acid solution (Sigma Cat #M7020=L-arginine.HCl 6.32 g/L, L-cystine 1.2 g/L, L-histidine.HCl.H20 2.1 g/L, L-isoleucine 2.625 g/L, L-leucine 2.62 g/L, L-lyscine.HCl 3.625 g/L, L-methionine 0.755 g/L, L-phenylalanine 1.65 g/L, L-threonine 2.38 g/L, L-tryptophane 0.51 g/L, L-tyrosine 1.8 g/L, L-valine 2.34 g/L).
We also used a non-essential AA solution=Sigma Cat #M7145=L-alanine HCl 0.89 g/L, L-asparagine.H20 1.50 g/L, L-aspartic acid 1.33 g/L, L-glutamic acid 1.47 g/L, glycine 0.75 g/L, L-proline 1.15 g/L, L-serine 1.05 g/L.
We 5×diluted 100×stock essential AA solution. We incubated 50 μl diluted milk with 50 μl buffer (control), or the essential AA solution, or the non-essential AA solution, or Nutramigen® RTU, added 25 μl MUG to start the reaction, quenched with Na-carbonate buffer, and read fluorescence (360 nm excitation: 445 nm emission). The results are as follows:
We then analyzed inhibitory effect of each of the seven amino acids in the non-essential amino acid mixture. We diluted pooled breast milk 10× with 0.2 M NaAC buffer pH 4.5, and diluted Nutramigen® RTU (N) and Nutramigen® lipid-free supernatant (LFS) 5 fold with 0.2 M NaAC buffer pH 4.5.
We prepared stock solutions of each of the non-essential amino acids L-alanine (Ala), L-asparagine (Asn), L-aspartic acid (Asp), L-glutamic acid (Glu), glycine (Gly), L-proline (Pro), and L-Serine (Ser). All solutions were at pH 4.5. The final concentration of each amino acid in the assay was the same as when the amino acids were analyzed as a mixture. […]

[1] = Example 5, Conc. 10 μm, read-out: % (activity relative to control)
[2] = Example 5, Conc. 100 μm, read-out: % (activity relative to control)
[3] = Example 5, Conc. 1,000 μm, read-out: % (activity relative to control)
[4] = Example 5, Conc. 10,000 μm, read-out: % (activity relative to control)

In the case of `C[C@H](N)C(=O)O` [Ala, L-alanine], the remaining activity at 35.6 µg/mL (Example 3, 35.6 μg/ml, read-out: % (activity relative to control)) is reported as 99.5%, the “mean (X̄) activity” value (Example 3, 35.6 μg/ml) is reported as 671.0 pmole/tube/hr and the “Activity (pmole/tube/hr)” value (Example 3, 35.6 μg/ml) is reported as 686.2 pmole/tube/hr and 670.9 pmole/tube/hr and 656.0 pmole/tube/hr.

For `NC(=O)C[C@H](N)C(=O)O` [Asn, L-asparagine], the remaining activity at 61.4 µg/mL (Example 3, 61.4 μg/ml, read-out: % (activity relative to control)) was 97.8%, the “mean (X̄) activity” value (Example 3, 61.4 μg/ml) was 659.2 pmole/tube/hr and the “Activity (pmole/tube/hr)” value (Example 3, 61.4 μg/ml) was 663.2 pmole/tube/hr and 667.6 pmole/tube/hr and 646.7 pmole/tube/hr.

For `N[C@@H](CC(=O)O)C(=O)O` [Asp, L-aspartic acid], the “effect on β-glucuronidase activity (in words)” value was “significantly inhibit β-glucuronidase; also recorded: significant β-glucuronidase inhibitory activity”, the remaining activity at 53.2 µg/mL (Example 3, 53.2 μg/ml, read-out: % (activity relative to control)) was 73.7% and the “mean (X̄) activity” value (Example 3, 53.2 μg/ml) was 496.5 pmole/tube/hr. For the same compound, the “Activity (pmole/tube/hr)” value (Example 3, 53.2 μg/ml) was 494.8 pmole/tube/hr and 500.8 pmole/tube/hr and 493.9 pmole/tube/hr, the “potency in β-glucuronidase inhibition relative to D-aspartic acid” value (Example 5) was “approximately 100 times” and the remaining activity at 10 µM [1] was 97.4%. The remaining activity at 100 µM [2] was 89.3%, the remaining activity at 1000 µM [3] was 53% and the remaining activity at 10000 µM [4] was 8.4%. For the same compound, the “mean (X̄) activity” value (Example 5, Conc. 10 μm) was 693.9 pmole/tube/hr, the “mean (X̄) activity” value (Example 5, Conc. 100 μm) was 636.4 pmole/tube/hr and the “mean (X̄) activity” value (Example 5, Conc. 1,000 μm) was 377.5 pmole/tube/hr. The “mean (X̄) activity” value (Example 5, Conc. 10,000 μm) was 60.2 pmole/tube/hr, the “Activity (pmole/tube/hr)” value (Example 5, Conc. 10 μm) was 692.5 pmole/tube/hr and 705.8 pmole/tube/hr and 683.2 pmole/tube/hr and the “Activity (pmole/tube/hr)” value (Example 5, Conc. 100 μm) was 641.0 pmole/tube/hr and 640.1 pmole/tube/hr and 628.0 pmole/tube/hr. The “Activity (pmole/tube/hr)” value (Example 5, Conc. 1,000 μm) was 405.5 pmole/tube/hr and 378.0 pmole/tube/hr and 349.1 pmole/tube/hr, the “Activity (pmole/tube/hr)” value (Example 5, Conc. 10,000 μm) was 62.7 pmole/tube/hr and 59.2 pmole/tube/hr and 58.6 pmole/tube/hr and the “concentration with significant β-glucuronidase inhibitory activity” value (Example 5) was over 10 µM. For the same compound, the “pH of maximum inhibition of β-glucuronidase” value (pH experiments) was about 5.

Compound `N[C@H](CC(=O)O)C(=O)O` [D-asp, D-aspartic acid] has a remaining activity at 10 µM [1] of 98.4%, a remaining activity at 100 µM [2] of 97.5% and a remaining activity at 1000 µM [3] of 98.1%. The remaining activity at 10000 µM [4] was 86.2%, the “mean (X̄) activity” value (Example 5, Conc. 10 μm) was 701.0 pmole/tube/hr and the “mean (X̄) activity” value (Example 5, Conc. 100 μm) was 694.8 pmole/tube/hr. The “mean (X̄) activity” value (Example 5, Conc. 1,000 μm) was 699.2 pmole/tube/hr, the “mean (X̄) activity” value (Example 5, Conc. 10,000 μm) was 614.7 pmole/tube/hr and the “Activity (pmole/tube/hr)” value (Example 5, Conc. 10 μm) was 706.2 pmole/tube/hr and 705.1 pmole/tube/hr and 691.7 pmole/tube/hr. The “Activity (pmole/tube/hr)” value (Example 5, Conc. 100 μm) was 692.3 pmole/tube/hr and 709.8 pmole/tube/hr and 682.1 pmole/tube/hr, the “Activity (pmole/tube/hr)” value (Example 5, Conc. 1,000 μm) was 704.2 pmole/tube/hr and 702.3 pmole/tube/hr and 691.2 pmole/tube/hr and the “Activity (pmole/tube/hr)” value (Example 5, Conc. 10,000 μm) was 626.2 pmole/tube/hr and 614.9 pmole/tube/hr and 602.9 pmole/tube/hr. The “concentration with significant β-glucuronidase inhibitory activity” value (Example 5) was 10,000 μM.

`O=C[C@H](O)[C@@H](O)[C@@H](O)[C@H](O)CO` [D-gal, D(+)galactose] gave a remaining activity at 100 µM (Example 4, 0.1 mM, read-out: % (activity relative to control)) of 99.1%, a remaining activity at 1000 µM (Example 4, 1 mM, read-out: % (activity relative to control)) of 99.2% and a remaining activity at 10000 µM (Example 4, 10 mM, read-out: % (activity relative to control)) of 99.2%. For the same compound, the “β-glucuronidase activity, % (of control)” value (Example 4, 0.1, 1, 10 mM) was 99%, the “X (mean activity)” value (Example 4, 0.1 mM) was 820.2 and the “X (mean activity)” value (Example 4, 1 mM) was 812.2. For the same compound, the “X (mean activity)” value (Example 4, 10 mM) was 820.5, the “β-glucuronidase activity (row unlabelled)” value (Example 4, 0.1 mM) was 816.8 and 812.8 and 830.9 and the “β-glucuronidase activity (row unlabelled)” value (Example 4, 1 mM) was 825.6 and 808.7 and 802.5. For the same compound, the “β-glucuronidase activity (row unlabelled)” value (Example 4, 10 mM) was 806.6 and 833.7 and 821.3.

For `N[C@@H](CCC(=O)O)C(=O)O` [Glu, L-glutamic acid], the “mean (X̄) activity” value (Example 3, 58.8 μg/ml) was 660.0 pmole/tube/hr, the “Activity (pmole/tube/hr)” value (Example 3, 58.8 μg/ml) was 658.8 pmole/tube/hr and 657.5 pmole/tube/hr and 663.7 pmole/tube/hr and the remaining activity at 58.8 µg/mL (read-out: % (activity relative to control)) was 97.9%.

For `NCC(=O)O` [Gly, glycine], the remaining activity at 30 µg/mL (Example 3, 30.0 μg/ml, read-out: % (activity relative to control)) was 102%, the “mean (X̄) activity” value (Example 3, 30.0 μg/ml) was 685.5 pmole/tube/hr and the “Activity (pmole/tube/hr)” value (Example 3, 30.0 μg/ml) was 674.7 pmole/tube/hr and 695.4 pmole/tube/hr and 686.5 pmole/tube/hr.

For `O=C(O)C[C@H](O)C(=O)O` [L-malic acid], the “effect on β-glucuronidase activity (in words)” value was “significantly inhibit β-glucuronidase; also recorded: contributed to the inhibition of β-glucuronidase at similar concentrations to L-aspartic acid”.
